Assay results reported in patent US20050112573A1, “Method of detecting toxic substance” (priority 2001, published 2005).

Test system: yeast genes (level of expressed mRNA)
Test: DNA chip analysis of expressed mRNA of yeast genes after 2 h culture with a toxic chemical substance
Assay type: cell-based, Saccharomyces cerevisiae S288C
Protocol: Yeast (Saccharomyces cerevtisiae S288C (α SUC2mal mel gap2 CUP1)) were cultured at 25° C. on YPD medium (yeast extract 1%, polypepton 2%, glucose 2%). One of toxic chemical substances was added to the cell at logarithmic growth phase, and the cell was further cultured for two hours. Cell was cultured without any chemical substance in the same condition, and was used as control. Concentrations of the chemical substances were defined to inhibit the growth of the yeast but not lead to death.
After the completion of cultivation, the culture was centrifuged to collect the cells. To the cells, sodium acetate buffer (50 mM sodium acetate, 10 mM EDTA, 1% SDS) was added, and the mixture was shaken at 65° C. for five minutes, followed by returning to room temperature, and obtaining the supernatant, which procedure was repeated two times. To the supernatant, ½ amount of a solution of phenol/chloroform was added, and the mixture was centrifuged to give a supernatant, which was added with an equal amount of chloroform, and the mixture was centrifuged to give a supernatant. To the supernatant, an equal amount of isopropanol containing 0.3 M sodium acetate was added, and the mixture was allowed to stand at room temperature for 30 minutes, after which the mixture was centrifuged to give a sediment of the whole RNAs. Seventy % ethanol was added to the sediment, and the mixture was again centrifuged to give a sediment, which was then dried and dissolved in water. mRNA was isolated from the whole RNAs as followings. In view of the fact that a poly A chain is attached to the 3′ terminus of mRNA, a polynucleotide having a poly T structure which was immobilized on the surface of latex beads was used to trap the mRNA, and then the mRNA was washed and eluted with spine column (Oligotex-dT30<Super>mRNA Purification Kit, Takara). Reverse transcription of the mRNA was conducted with a reverse transcriptase (Super Script II Reverse Transcriptase; catalogue No. 18064-014, GibcoBRL) using fluorescence-labeled nucleotides to give cDNAs that were introduced with Cy3-dUTP or Cy5-dUTP during the reverse transcription.
The labeled cDNAs were dissolved in TE buffer (10 mM Tris-HCl/1 mM EDTA, pH8.0), and the solution was dropped on the DNA chip containing the whole genes of yeast (DNA Chip Research Inc. Japan) so that the cDNAs were hybridized on the DNA chip at 65° C. for over 12 hours. The fluoresces intensity of the DNA chip was read with a scanner, and the ratio relative to the fluorescence intensity resulting from the absence of chemical substance was estimated as the following, which is shown in Tables 1 to 9: [formula]
In the Tables, “Intensity” indicated in the rightmost column is a value of the level of expressed mRNA of each gene in control cells as divided by the average level of the expressions of the whole genes.

In the case of `N#Cc1c(Cl)c(Cl)c(Cl)c(C#N)c1Cl` [(9), 2,4,5,6-tetrachloro-1,3-benzenedicarbonitrile], the “The level of expressed mRNA in the presence of chemical substance/The level of expressed mRNA in the absence of chemical substance” value (yeast gene YKL039W) is reported as 1.3, the “The level of expressed mRNA in the presence of chemical substance/The level of expressed mRNA in the absence of chemical substance” value (yeast gene YKL041W) is reported as 1.6 and the “The level of expressed mRNA in the presence of chemical substance/The level of expressed mRNA in the absence of chemical substance” value (yeast gene YKL139W) is reported as 1.6. The “The level of expressed mRNA in the presence of chemical substance/The level of expressed mRNA in the absence of chemical substance” value (yeast gene YKL165C) was 0.4, the “The level of expressed mRNA in the presence of chemical substance/The level of expressed mRNA in the absence of chemical substance” value (yeast gene YKL193C) was 1.0 and the “The level of expressed mRNA in the presence of chemical substance/The level of expressed mRNA in the absence of chemical substance” value (yeast gene YKR014C) was 2.4. The “The level of expressed mRNA in the presence of chemical substance/The level of expressed mRNA in the absence of chemical substance” value (yeast gene YLR093C) was 1.5, the “The level of expressed mRNA in the presence of chemical substance/The level of expressed mRNA in the absence of chemical substance” value (yeast gene YLR120C) was 1.8 and the “The level of expressed mRNA in the presence of chemical substance/The level of expressed mRNA in the absence of chemical substance” value (yeast gene YLR136C) was 0.9. The “The level of expressed mRNA in the presence of chemical substance/The level of expressed mRNA in the absence of chemical substance” value (yeast gene YLR178C) was 4.3, the “The level of expressed mRNA in the presence of chemical substance/The level of expressed mRNA in the absence of chemical substance” value (yeast gene YLR250W) was 2.7 and the “The level of expressed mRNA in the presence of chemical substance/The level of expressed mRNA in the absence of chemical substance” value (yeast gene YLR327C) was 3.0. For the same compound, the “The level of expressed mRNA in the presence of chemical substance/The level of expressed mRNA in the absence of chemical substance” value (yeast gene YLR356W) was 2.3, the “The level of expressed mRNA in the presence of chemical substance/The level of expressed mRNA in the absence of chemical substance” value (yeast gene YLR362W) was 3.5 and the “The level of expressed mRNA in the presence of chemical substance/The level of expressed mRNA in the absence of chemical substance” value (yeast gene YLR391W) was 0.4. For the same compound, the “The level of expressed mRNA in the presence of chemical substance/The level of expressed mRNA in the absence of chemical substance” value (yeast gene YLR429W) was 0.9, the “The level of expressed mRNA in the presence of chemical substance/The level of expressed mRNA in the absence of chemical substance” value (yeast gene YMR004W) was 94.2 and the “The level of expressed mRNA in the presence of chemical substance/The level of expressed mRNA in the absence of chemical substance” value (yeast gene YMR104C) was 0.6. For the same compound, the “The level of expressed mRNA in the presence of chemical substance/The level of expressed mRNA in the absence of chemical substance” value (yeast gene YMR219W) was 2.3, the “The level of expressed mRNA in the presence of chemical substance/The level of expressed mRNA in the absence of chemical substance” value (yeast gene YMR226C) was 2.6 and the “The level of expressed mRNA in the presence of chemical substance/The level of expressed mRNA in the absence of chemical substance” value (yeast gene YMR275C) was 2.4. For the same compound, the “The level of expressed mRNA in the presence of chemical substance/The level of expressed mRNA in the absence of chemical substance” value (yeast gene YMR276W) was 1.8, the “The level of expressed mRNA in the presence of chemical substance/The level of expressed mRNA in the absence of chemical substance” value (yeast gene YMR314W) was 5.9 and the “The level of expressed mRNA in the presence of chemical substance/The level of expressed mRNA in the absence of chemical substance” value (yeast gene YNL006W) was 4.0. The “The level of expressed mRNA in the presence of chemical substance/The level of expressed mRNA in the absence of chemical substance” value (yeast gene YNL007C) was 3.0, the “The level of expressed mRNA in the presence of chemical substance/The level of expressed mRNA in the absence of chemical substance” value (yeast gene YNL093W) was 1.7 and the “The level of expressed mRNA in the presence of chemical substance/The level of expressed mRNA in the absence of chemical substance” value (yeast gene YNL333W) was 2.3. The “The level of expressed mRNA in the presence of chemical substance/The level of expressed mRNA in the absence of chemical substance” value (yeast gene YNR010W) was 1.7, the “The level of expressed mRNA in the presence of chemical substance/The level of expressed mRNA in the absence of chemical substance” value (yeast gene YNR069C) was 5.5 and the “The level of expressed mRNA in the presence of chemical substance/The level of expressed mRNA in the absence of chemical substance” value (yeast gene YOL013C) was 0.8. For the same compound, the “The level of expressed mRNA in the presence of chemical substance/The level of expressed mRNA in the absence of chemical substance” value (yeast gene YOL164W) was 4.9, the “The level of expressed mRNA in the presence of chemical substance/The level of expressed mRNA in the absence of chemical substance” value (yeast gene YOR036W) was 1.2 and the “The level of expressed mRNA in the presence of chemical substance/The level of expressed mRNA in the absence of chemical substance” value (yeast gene YOR117W) was 3.5. The “The level of expressed mRNA in the presence of chemical substance/The level of expressed mRNA in the absence of chemical substance” value (yeast gene YOR124C) was 2.0, the “The level of expressed mRNA in the presence of chemical substance/The level of expressed mRNA in the absence of chemical substance” value (yeast gene YOR132W) was 2.8 and the “The level of expressed mRNA in the presence of chemical substance/The level of expressed mRNA in the absence of chemical substance” value (yeast gene YOR157C) was 5.7. The “The level of expressed mRNA in the presence of chemical substance/The level of expressed mRNA in the absence of chemical substance” value (yeast gene YOR181W) was 0.6, the “The level of expressed mRNA in the presence of chemical substance/The level of expressed mRNA in the absence of chemical substance” value (yeast gene YOR185C) was 1.9 and the “The level of expressed mRNA in the presence of chemical substance/The level of expressed mRNA in the absence of chemical substance” value (yeast gene YOR198C) was 2.4. The “The level of expressed mRNA in the presence of chemical substance/The level of expressed mRNA in the absence of chemical substance” value (yeast gene YOR259C) was 2.7, the “The level of expressed mRNA in the presence of chemical substance/The level of expressed mRNA in the absence of chemical substance” value (yeast gene YOR261C) was 5.5 and the “The level of expressed mRNA in the presence of chemical substance/The level of expressed mRNA in the absence of chemical substance” value (yeast gene YOR288C) was 0.9. The “The level of expressed mRNA in the presence of chemical substance/The level of expressed mRNA in the absence of chemical substance” value (yeast gene YOR355W) was 0.1, the “The level of expressed mRNA in the presence of chemical substance/The level of expressed mRNA in the absence of chemical substance” value (yeast gene YOR383C) was 1.2 and the “The level of expressed mRNA in the presence of chemical substance/The level of expressed mRNA in the absence of chemical substance” value (yeast gene YPL089C) was 0.4. The “The level of expressed mRNA in the presence of chemical substance/The level of expressed mRNA in the absence of chemical substance” value (yeast gene YPL109C) was 1.2, the “The level of expressed mRNA in the presence of chemical substance/The level of expressed mRNA in the absence of chemical substance” value (yeast gene YPL149W) was 5.6 and the “The level of expressed mRNA in the presence of chemical substance/The level of expressed mRNA in the absence of chemical substance” value (yeast gene YPL154C) was 2.8. The “The level of expressed mRNA in the presence of chemical substance/The level of expressed mRNA in the absence of chemical substance” value (yeast gene YPR103W) was 5.5 and the “The level of expressed mRNA in the presence of chemical substance/The level of expressed mRNA in the absence of chemical substance” value (yeast gene YPR108W) was 3.7.
